{"source": "paper PMC3867298", "about": "(Clinical cancer research : an official journal of the …, 2010)", "key": {"[1]": {"test_system": "patients with advanced solid tumors"}, "[2]": {"test_system": "H929 human plasmacytoma xenografts", "details": "vs vehicle; cited from earlier work"}, "[3]": {"test_system": "MDA-MB-231 breast cancer xenograft", "details": "MDA-MB-231 xenograft, with reduced tumor vascularization (CD31); cited from earlier work"}, "[4]": {"details": "cohort 1, 60 mg/m^2, 7 patients"}, "[5]": {"details": "cohort 2, 80 mg/m^2, 4 patients"}, "[6]": {"details": "cohort 3, 120 mg/m^2, 3 patients"}, "[7]": {"details": "cohort 4, 200 mg/m^2, 7 patients"}, "[8]": {"details": "cohort 5, 160 mg/m^2, 8 patients"}, "[9]": {"details": "expansion, 160 mg/m^2, 38 patients"}, "[10]": {"details": "treatment-related, worst grade per patient, all cycles, N = 67"}}, "note": "Like-named read-outs stand apart in the source and are kept apart here. Marks after values point to notes of the source that are not given here."}
{"smiles": "Cc1cc(Nc2cc(N3CCN(C)CC3)nc(/C=C/c3ccccc3)n2)n[nH]1", "note": "[ENMD-2076]", "values": [{"measurement": "Adrenal insufficiency", "setting": "[1]; all patients", "result": "not observed"}, {"measurement": "Patients requiring dose reduction due to toxicity", "setting": "[1]; at the MTD of 160 mg/m^2", "result": 33, "unit": "%"}, {"measurement": "Patients with hypothyroidism", "setting": "[1]; both in the expanded 160 mg/m^2 cohort", "result": 2, "unit": "patients"}, {"measurement": "No. of patients with DLT (cycle 1)", "setting": "[1]; [4]", "result": "1 ^†"}, {"measurement": "No. of patients with dose delays", "setting": "[1]; [4]", "result": "2 (29%)"}, {"measurement": "No. patients with dose reductions", "setting": "[1]; [4]", "result": "1 (14%)"}, {"measurement": "No. of patients with DLT (cycle 1)", "setting": "[1]; [5]", "result": 0}, {"measurement": "No. of patients with dose delays", "setting": "[1]; [5]", "result": "3 (75%)"}, {"measurement": "No. patients with dose reductions", "setting": "[1]; [5]", "result": "1 (25%)"}, {"measurement": "No. of patients with DLT (cycle 1)", "setting": "[1]; [6]", "result": 0}, {"measurement": "No. of patients with dose delays", "setting": "[1]; [6]", "result": "1 (33%)"}, {"measurement": "No. patients with dose reductions", "setting": "[1]; [6]", "result": 0}, {"measurement": "No. of patients with dose delays", "setting": "[1]; [7]", "result": "7 (100%)"}, {"measurement": "No. patients with dose reductions", "setting": "[1]; [7]", "result": "3 (43%)"}, {"measurement": "No. of patients with dose delays", "setting": "[1]; [8]", "result": "3 (38%)"}, {"measurement": "No. patients with dose reductions", "setting": "[1]; [8]", "result": "1 (13%)"}, {"measurement": "Patients with fatigue of grade 3 to 4 severity", "setting": "[1]; expanded 160 mg/m^2 cohort", "result": 2, "unit": "patients"}, {"measurement": "Patients with tooth discoloration", "setting": "[1]; expanded 160 mg/m^2 cohort", "result": "Four"}, {"measurement": "Patients with grade 3/4 neutropenia", "setting": "[1]; expanded 160 mg/m^2 cohort, 2 of 38", "result": 5, "unit": "%"}, {"measurement": "Patients with grade 1/2 neutropenia", "setting": "[1]; expanded 160 mg/m^2 cohort, 3 of 38", "result": 8, "unit": "%"}, {"measurement": "Patients with fatigue", "setting": "[1]; expanded 160 mg/m^2 cohort, 12/38", "result": 32, "unit": "%"}, {"measurement": "No. of patients with DLT (met the definition of DLT)", "setting": "[1]; [9]", "result": "12 ^§"}, {"measurement": "No. of patients with dose delays", "setting": "[1]; [9]", "result": "24 (63%)"}, {"measurement": "No. patients with dose reductions", "setting": "[1]; [9]", "result": "14 (37%)"}, {"measurement": "Patients in whom hypertension resulted in dose delay or reduction", "setting": "[1]; in vivo", "result": 16, "unit": "%"}, {"measurement": "Recommended phase 2 dose", "setting": "[1]; oral once daily, continuous dosing", "result": 160, "unit": "mg/m^2"}, {"measurement": "Maximum tolerated dose (MTD)", "setting": "[1]; oral, continuous once daily dosing", "result": 160, "unit": "mg/m^2"}, {"measurement": "Median time to onset of hypertension following initial dosing", "setting": "[1]; range 2–60 days", "result": 14, "unit": "days"}, {"measurement": "Patients with hypertension of grade 3/4 severity", "setting": "[1]; total patients", "result": 21, "unit": "%"}, {"measurement": "Anorexia, any grade", "setting": "[1]; [10]", "result": 24, "unit": "%"}, {"measurement": "Anorexia, grade 3, No. of patients", "setting": "[1]; [10]", "result": 0}, {"measurement": "Anorexia, grade 4, No. of patients", "setting": "[1]; [10]", "result": 0}, {"measurement": "Constipation, any grade", "setting": "[1]; [10]", "result": 15, "unit": "%"}, {"measurement": "Constipation, any grade, No. of patients", "setting": "[1]; [10]", "result": 10}, {"measurement": "Constipation, grade 3, No. of patients", "setting": "[1]; [10]", "result": 0}, {"measurement": "Constipation, grade 4, No. of patients", "setting": "[1]; [10]", "result": 0}, {"measurement": "Dehydration, any grade, No. of patients", "setting": "[1]; [10]", "result": 12}, {"measurement": "Dehydration, grade 3", "setting": "[1]; [10]", "result": 1, "unit": "%"}, {"measurement": "Dehydration, grade 3, No. of patients", "setting": "[1]; [10]", "result": 1}, {"measurement": "Dehydration, grade 4, No. of patients", "setting": "[1]; [10]", "result": 0}, {"measurement": "Diarrhea, any grade, No. of patients", "setting": "[1]; [10]", "result": 17}, {"measurement": "Diarrhea, grade 3", "setting": "[1]; [10]", "result": 3, "unit": "%"}, {"measurement": "Diarrhea, grade 3, No. of patients", "setting": "[1]; [10]", "result": 2}, {"measurement": "Diarrhea, grade 4, No. of patients", "setting": "[1]; [10]", "result": 0}, {"measurement": "Dysgeusia, any grade", "setting": "[1]; [10]", "result": 10, "unit": "%"}, {"measurement": "Dysgeusia, any grade, No. of patients", "setting": "[1]; [10]", "result": 7}, {"measurement": "Dysgeusia, grade 3, No. of patients", "setting": "[1]; [10]", "result": 0}, {"measurement": "Dysgeusia, grade 4, No. of patients", "setting": "[1]; [10]", "result": 0}, {"measurement": "Dyspnea, any grade, No. of patients", "setting": "[1]; [10]", "result": 8}, {"measurement": "Dyspnea, grade 3", "setting": "[1]; [10]", "result": 4, "unit": "%"}, {"measurement": "Dyspnea, grade 3, No. of patients", "setting": "[1]; [10]", "result": 3}, {"measurement": "Dyspnea, grade 4, No. of patients", "setting": "[1]; [10]", "result": 0}, {"measurement": "Fatigue, any grade", "setting": "[1]; [10]", "result": 31, "unit": "%"}, {"measurement": "Fatigue, any grade, No. of patients", "setting": "[1]; [10]", "result": 21}, {"measurement": "Fatigue, grade 3", "setting": "[1]; [10]", "result": 3, "unit": "%"}, {"measurement": "Fatigue, grade 3, No. of patients", "setting": "[1]; [10]", "result": 2}, {"measurement": "Fatigue, grade 4, No. of patients", "setting": "[1]; [10]", "result": 0}, {"measurement": "Glossodynia, any grade, No. of patients", "setting": "[1]; [10]", "result": 11}, {"measurement": "Glossodynia, grade 3, No. of patients", "setting": "[1]; [10]", "result": 0}, {"measurement": "Glossodynia, grade 4, No. of patients", "setting": "[1]; [10]", "result": 0}, {"measurement": "Hypertension, any grade, No. of patients", "setting": "[1]; [10]", "result": 37}, {"measurement": "Hypertension, grade 3, No. of patients", "setting": "[1]; [10]", "result": 12}, {"measurement": "Hypertension, grade 4", "setting": "[1]; [10]", "result": 3, "unit": "%"}, {"measurement": "Hypertension, grade 4, No. of patients", "setting": "[1]; [10]", "result": 2}, {"measurement": "Mucositis, any grade", "setting": "[1]; [10]", "result": 15, "unit": "%"}, {"measurement": "Mucositis, any grade, No. of patients", "setting": "[1]; [10]", "result": 10}, {"measurement": "Mucositis, grade 3, No. of patients", "setting": "[1]; [10]", "result": 0}, {"measurement": "Mucositis, grade 4, No. of patients", "setting": "[1]; [10]", "result": 0}, {"measurement": "Nausea/vomiting, any grade, No. of patients", "setting": "[1]; [10]", "result": 26}, {"measurement": "Nausea/vomiting, grade 3, No. of patients", "setting": "[1]; [10]", "result": 0}, {"measurement": "Nausea/vomiting, grade 4, No. of patients", "setting": "[1]; [10]", "result": 0}, {"measurement": "Patients reporting related adverse events, grade 3", "setting": "[1]; [10]", "result": 28, "unit": "%"}, {"measurement": "Patients reporting related adverse events, grade 3, No. of patients", "setting": "[1]; [10]", "result": 19}, {"measurement": "Patients reporting related adverse events, grade 4", "setting": "[1]; [10]", "result": 9, "unit": "%"}, {"measurement": "Patients reporting related adverse events, grade 4, No. of patients", "setting": "[1]; [10]", "result": 6}, {"measurement": "Tumor growth", "setting": "[2]", "result": "Dose-dependent inhibition of tumor growth"}, {"measurement": "Tumor response", "setting": "[3]", "result": "regressions"}]}
